# Legend:
# [1] = test system: field corn (Zea mays L., var. Dekalb 535, CORN); assay: Post-emerge greenhouse screening, crop safety / corn selectivity (phytotoxicity rating); type: in vivo; settings: 14 days after application
# Outline: (§1)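 Pre-emerge: seeds sown 1 day before spray; acetone solutions, 15–1000 g ai/ha, track sprayer; soil watered after application, then bottom-watered. Post-emerge: plants at 2-3 leaf stage (sown 8-21 days prior), 0.25% v/v non-ionic surfactant added, bottom-watered only. Rated 0-100 at 14 DAA.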
# [2] = as above; type: in vivo, Zea mays L.; settings: Zea mays (field corn), in vivo
# Outline: as §1
# [3] = test system: field corn (Zea mays L., var. Dekalb 535, CORN); assay: Pre-emerge greenhouse screening, crop safety (phytotoxicity rating); type: in vivo; settings: 14 days after application
# Outline: as §1
# [4] = test system: soybean (Glycine max L., var. Pella 86, SOY); assay: as above; type: in vivo; settings: 14 days after application
# Outline: as §1
# [5] = test system: upland rice (Oryza sp., var.Tebonnet, RICE); assay: as above; type: in vivo; settings: 14 days after application
# Outline: as §1
# [6] = test system: common ragweed (Ambrosia artemisiifolia L., AMBEL); assay: Pre-emerge greenhouse herbicide activity screening, phytotoxicity rating; type: in vivo; settings: 14 days after application
# Outline: as §1
# [7] = test system: sicklepod (Cassia obtusifolia, CASOB); assay: as above; type: in vivo; settings: 14 days after application
# Outline: as §1
# [8] = test system: ivyleaf morningglory (Ipomoea hederacea, IPOHE); assay: as above; type: in vivo; settings: 14 days after application
# Outline: as §1
# [9] = test system: lambsquarters (Chenopodium album, CHEAL); assay: as above; type: in vivo; settings: 14 days after application
# Outline: as §1
# [10] = test system: green foxtail (Setaria viridis, SETVI); assay: as above; type: in vivo; settings: 14 days after application
# Outline: as §1
# [11] = test system: redroot pigweed (Amaranthus retroflexus, AMARE); assay: as above; type: in vivo; settings: 14 days after application
# Outline: as §1
# [12] = test system: velvetleaf (Abutilon theophrasti, ABUTH); assay: as above; type: in vivo; settings: 14 days after application
# Outline: as §1
# [13] = test system: large crabgrass (Digitaria sanguinalis, DIGSA); assay: as above; type: in vivo; settings: 14 days after application
# Outline: as §1
# [14] = test system: johnsongrass (Sorghum halepense, SORHA); assay: as above; type: in vivo; settings: 14 days after application
# Outline: as §1
# [15] = test system: barnyardgrass (Echinochloa crus-galli, ECHCG); assay: as above; type: in vivo; settings: 14 days after application
# Outline: as §1
# [16] = test system: soybean (Glycine max L., var. Pella 86, SOY); assay: Post-emerge greenhouse screening, crop safety (phytotoxicity rating); type: in vivo; settings: 14 days after application
# Outline: as §1
# [17] = test system: upland rice (Oryza sp., var.Tebonnet, RICE); assay: as above; type: in vivo; settings: 14 days after application
# Outline: as §1
# [18] = test system: common ragweed (Ambrosia artemisiifolia L., AMBEL); assay: Post-emerge greenhouse herbicide activity screening, phytotoxicity rating; type: in vivo
# Outline: as §1
# [19] = test system: sicklepod (Cassia obtusifolia, CASOB); assay: as above; type: in vivo
# Outline: as §1
# [20] = test system: ivyleaf morningglory (Ipomoea hederacea, IPOHE); assay: as above; type: in vivo; settings: 14 days after application
# Outline: as §1
# [21] = test system: lambsquarters (Chenopodium album, CHEAL); assay: as above; type: in vivo
# Outline: as §1
# [22] = test system: green foxtail (Setaria viridis, SETVI); assay: as above; type: in vivo
# Outline: as §1
# [23] = test system: redroot pigweed (Amaranthus retroflexus, AMARE); assay: as above; type: in vivo
# Outline: as §1
# [24] = test system: velvetleaf (Abutilon theophrasti, ABUTH); assay: as above; type: in vivo; settings: 14 days after application
# Outline: as §1
# [25] = test system: large crabgrass (Digitaria sanguinalis, DIGSA); assay: as above; type: in vivo; settings: 14 days after application
# Outline: as §1
# [26] = test system: johnsongrass (Sorghum halepense, SORHA); assay: as above; type: in vivo; settings: 14 days after application
# Outline: as §1
# [27] = test system: barnyardgrass (Echinochloa crus-galli, ECHCG); assay: as above; type: in vivo; settings: 14 days after application
# Outline: as §1
# [28] = 125 g ai/ha, 14 days after application
# [29] = 250 g ai/ha, 14 days after application
compound,measurement,setting,value
"Cn1c(C(F)(F)F)cc(=O)n(-c2cc(Oc3ncccn3)c(Cl)cc2F)c1=S [Compound 1-1, 3-[4-Chloro-2-fluoro-5-(2-pyrimidinyloxy)phenyl]-2,3-dihydro-1-methyl-2-thioxo-6-(trifluoromethyl)-4(1H)-pyrimidinone]","CORN crop damage, phytotoxicity rating (0-100 scale)",[1]; 125 g ai/ha,10
same,"CORN crop damage, phytotoxicity rating (0-100 scale)",[1]; 250 g ai/ha,15
same,corn phytotoxicity rating (0-100 scale) at 14 days,[2]; 31.3 g ai/ha,8
same,corn phytotoxicity rating (0-100 scale) at 14 days,[2]; 62.5 g ai/ha,8
same,"CORN crop damage, phytotoxicity rating (0-100 scale)",[3]; 125 g ai/ha,100
same,"CORN crop damage, phytotoxicity rating (0-100 scale)",[3]; 250 g ai/ha,100
same,"SOY crop damage, phytotoxicity rating (0-100 scale)",[4]; 125 g ai/ha,100
same,"SOY crop damage, phytotoxicity rating (0-100 scale)",[4]; 250 g ai/ha,80
same,"RICE crop damage, phytotoxicity rating (0-100 scale)",[5]; 125 g ai/ha,100
same,"RICE crop damage, phytotoxicity rating (0-100 scale)",[5]; 250 g ai/ha,100
same,AMBEL phytotoxicity rating (0-100 scale),[6]; 125 g ai/ha,100
same,AMBEL phytotoxicity rating (0-100 scale),[6]; 250 g ai/ha,100
same,CASOB phytotoxicity rating (0-100 scale),[7]; 125 g ai/ha,100
same,CASOB phytotoxicity rating (0-100 scale),[7]; 250 g ai/ha,100
same,IPOHE phytotoxicity rating (0-100 scale),[8]; 125 g ai/ha,100
same,IPOHE phytotoxicity rating (0-100 scale),[8]; 250 g ai/ha,100
same,CHEAL phytotoxicity rating (0-100 scale),[9]; 125 g ai/ha,100
same,CHEAL phytotoxicity rating (0-100 scale),[9]; 250 g ai/ha,100
same,SETVI phytotoxicity rating (0-100 scale),[10]; 125 g ai/ha,100
same,SETVI phytotoxicity rating (0-100 scale),[10]; 250 g ai/ha,100
same,AMARE phytotoxicity rating (0-100 scale),[11]; 125 g ai/ha,100
same,AMARE phytotoxicity rating (0-100 scale),[11]; 250 g ai/ha,100
same,ABUTH phytotoxicity rating (0-100 scale),[12]; 125 g ai/ha,100
same,ABUTH phytotoxicity rating (0-100 scale),[12]; 250 g ai/ha,100
same,DIGSA phytotoxicity rating (0-100 scale),[13]; 125 g ai/ha,100
same,DIGSA phytotoxicity rating (0-100 scale),[13]; 250 g ai/ha,100
same,SORHA phytotoxicity rating (0-100 scale),[14]; 125 g ai/ha,100
same,SORHA phytotoxicity rating (0-100 scale),[14]; 250 g ai/ha,100
same,ECHCG phytotoxicity rating (0-100 scale),[15]; 125 g ai/ha,100
same,ECHCG phytotoxicity rating (0-100 scale),[15]; 250 g ai/ha,100
same,"SOY crop damage, phytotoxicity rating (0-100 scale)",[16]; 125 g ai/ha,100
same,"SOY crop damage, phytotoxicity rating (0-100 scale)",[16]; 250 g ai/ha,100
same,"RICE crop damage, phytotoxicity rating (0-100 scale)",[17]; 125 g ai/ha,100
same,"RICE crop damage, phytotoxicity rating (0-100 scale)",[17]; 250 g ai/ha,100
same,AMBEL phytotoxicity rating (0-100 scale),[18]; 31.3 g ai/ha,75
same,AMBEL phytotoxicity rating (0-100 scale),[18]; 62.5 g ai/ha,98
same,AMBEL phytotoxicity rating (0-100 scale),[18]; [28],99
same,AMBEL phytotoxicity rating (0-100 scale),[18]; [29],100
same,CASOB phytotoxicity rating (0-100 scale),[19]; 31.3 g ai/ha,95
same,CASOB phytotoxicity rating (0-100 scale),[19]; 62.5 g ai/ha,99
same,CASOB phytotoxicity rating (0-100 scale),[19]; [28],99
same,CASOB phytotoxicity rating (0-100 scale),[19]; [29],99
same,IPOHE phytotoxicity rating (0-100 scale),[20]; 125 g ai/ha,100
same,IPOHE phytotoxicity rating (0-100 scale),[20]; 250 g ai/ha,100
same,CHEAL phytotoxicity rating (0-100 scale),[21]; 31.3 g ai/ha,100
same,CHEAL phytotoxicity rating (0-100 scale),[21]; 62.5 g ai/ha,100
same,CHEAL phytotoxicity rating (0-100 scale),[21]; [28],100
same,CHEAL phytotoxicity rating (0-100 scale),[21]; [29],100
same,SETVI phytotoxicity rating (0-100 scale),[22]; 31.3 g ai/ha,85
same,SETVI phytotoxicity rating (0-100 scale),[22]; 62.5 g ai/ha,99
same,SETVI phytotoxicity rating (0-100 scale),[22]; [28],100
same,SETVI phytotoxicity rating (0-100 scale),[22]; [29],100
same,AMARE phytotoxicity rating (0-100 scale),[23]; 31.3 g ai/ha,100
same,AMARE phytotoxicity rating (0-100 scale),[23]; 62.5 g ai/ha,100
same,AMARE phytotoxicity rating (0-100 scale),[23]; [28],100
same,AMARE phytotoxicity rating (0-100 scale),[23]; [29],100
same,ABUTH phytotoxicity rating (0-100 scale),[24]; 125 g ai/ha,100
same,ABUTH phytotoxicity rating (0-100 scale),[24]; 250 g ai/ha,100
same,DIGSA phytotoxicity rating (0-100 scale),[25]; 125 g ai/ha,95
same,DIGSA phytotoxicity rating (0-100 scale),[25]; 250 g ai/ha,90
same,SORHA phytotoxicity rating (0-100 scale),[26]; 125 g ai/ha,95
same,SORHA phytotoxicity rating (0-100 scale),[26]; 250 g ai/ha,98
same,ECHCG phytotoxicity rating (0-100 scale),[27]; 125 g ai/ha,100
same,ECHCG phytotoxicity rating (0-100 scale),[27]; 250 g ai/ha,100
